From US20250057772A1, “ORAL DOSAGE FORM WITH IONICALLY CHARGEABLE HYDROGEL FOR DELIVERY OF ACTIVE AGENT” (Entrega Inc., priority 2022, published 2025)
Blank lines part the entries; values can stand above or below the compound they belong to.

Key:
[1] = Evans Blue exclusion procedure; assay type: physicochemical; settings: 0.125 mg/mL Evans Blue in FASSIF buffer pH 7, hydrogel #12.035 for 40, 60, 80, 90% fluid uptake; p<0.001 vs no hydrogel
Description: Commercially obtained Evan's blue dye was used as a surrogate marker for an anionic drug in hydrogel testing. It has a molecular weight of 961.8 g/mole and has four negative charges at pH 7 due to four sulfonate groups in the structure. Its visible light absorbance at 605 nm provides an easy way to monitor the concentration of the dye when exposed to the hydrogel in solution.
FASSIF buffer was created by adding 41.65 g of FASSIF buffer concentrate (Biorelevant Media, code FaSSIF) to 961.1 g DI water and stirred until completely mixed. Evans Blue solution was created by adding Evans Blue to approximately half of the FASSIF solution such that the final concentration of the media is 0.125 mg/mL Evans Blue.
5 mL of Evans Blue solution was added to a 15 mL centrifuge tube (EB Tube). 5 mL of FASSIF buffer (without Evans Blue) was added to another 15 mL tube (Background Tube). 200 mg of sub-63 um hydrogel #12.035 was added to both tubes. Vortexed tubes until fully mixed and placed both tubes on rocker plate for 15 minutes. After 15 minutes, both tubes were centrifuged at 3000 g for 1 minute. (N=3) 20 μL samples were extracted from the supernatant of both tubes and diluted into 180 μL of DI water in 96-well UV-clear plate. […] The plate was read for absorbance at 605 nm.
The absorbance reading samples from each group were averaged. […]

[2] = Exclusion or binding of ionic agents by Hydrogel #3.02, exterior fluid concentration by UV absorbance; assay type: physicochemical
Method: Sodium caprate (sodium decanoate) is a known intestinal permeation enhancer with a negative charge (negative charge on the caprate). Sodium caprate (280 mg) was dissolved in 5 mL of modified pH 7 FASSIF buffer.
The intestinal permeation enhancer, sodium caprate (280 mg) was added.
Octreotide (as octreotide acetate) is an FDA approved therapeutic peptide with a molecular weight of 1019 g/mole and a net positive charge at pH below 8 (isoelectric point of octreotide=8.5). Octreotide (5 mg) was dissolved in 5 mL of modified FASSIF buffer at pH 7 (resulting in a starting concentration of 1 mg/mL).
Lanreotide is an FDA approved therapeutic peptide with a molecular weight of 1096 g/mole and a net positive charge at pH below 8. Lanreotide (5 mg) was dissolved in 5 mL of modified FASSIF buffer at pH 7.
Lanreotide is an FDA approved therapeutic peptide with a molecular weight of 1096 g/mole and a net positive charge at pH below 8. Lanreotide (5 mg) was dissolved in 5 mL of deionized water.

[3] = published values; cited from earlier work

relative concentration of the dye as hydrogel is added [1]: increasing concentration
SMILES: Cc1cc(-c2ccc(/N=N/c3ccc4c(S(=O)(=O)O)cc(S(=O)(=O)O)c(N)c4c3O)c(C)c2)ccc1/N=N/c1ccc2c(S(=O)(=O)O)cc(S(=O)(=O)O)c(N)c2c1O [Evans Blue]

SMILES: CC(C)[C@@H]1NC(=O)[C@H](CCCCN)NC(=O)[C@@H](Cc2c[nH]c3ccccc23)NC(=O)[C@H](Cc2ccc(O)cc2)NC(=O)[C@@H](NC(=O)[C@H](N)Cc2ccc3ccccc3c2)CSSC[C@@H](C(=O)N[C@H](C(N)=O)[C@@H](C)O)NC1=O [Lanreotide]
concentration in the exterior fluid ([2]; 5 mg in 5 mL deionized water, Hydrogel #3.02 300 mg, after 25 minutes): less than 0.05 mg/mL
concentration in the exterior fluid ([2]; 5 mg in 5 mL modified FASSIF pH 7, Hydrogel #3.02 300 mg, after 25 minutes): ~300 µg/mL

concentration in the exterior fluid ([2]; 5 mg in 5 mL modified FASSIF pH 7 (start 1 mg/mL), Hydrogel #3.02 300 mg, after 10 minutes): less than 0.8 mg/mL
SMILES: C[C@@H](O)[C@@H]1NC(=O)[C@H](CCCCN)NC(=O)[C@@H](Cc2c[nH]c3ccccc23)NC(=O)[C@H](Cc2ccccc2)NC(=O)[C@@H](NC(=O)[C@H](N)Cc2ccccc2)CSSC[C@@H](C(=O)N[C@H](CO)[C@@H](C)O)NC1=O [Octreotide]

concentration of caprate in the exterior fluid relative to initial concentration ([2]; 280 mg in 5 mL modified pH 7 FASSIF, Hydrogel #3.02 300 mg): ~1.4 times the initial concentration
SMILES: CCCCCCCCCC(=O)[O-].[Na+] [Sodium caprate, sodium decanoate]

SMILES: CCS(=O)(=O)O [ethanesulfonic acid]
pKa [3]: −1.68

SMILES: COS(=O)(=O)O [methanesulfate]
pKa [3]: −3.4

SMILES: CCCN [propylamine]
pKa [3]: ~10.7
